Values after ≈ are worked out from the molar mass of the structure shown. “Also recorded” adds a separate entry of the source.
Assays:
[1] = tested on: Eubcterium limosum 3344; assay: agar dilution MIC, anaerobic, Wilkens-Chalgren agar; assay type: cell-based; conditions: 10^6 cfu/spot, 35° C., 48 hours
Protocol: (a) Wilkens-Chalgren agar was used instead of antagonist-free medium (Roche);
(b) The inoculum/spot was about 10^6 instead of about 10^4 ;
(c) The incubation period was for 48 hours, not 24 hours; and
(d) Incubations were performed under anaerobic conditions.
*Agar dilution assay, multipoint inoculator, WilkensChalgren agar,
inoculum 10^6 cfu/spot, incubation at 35° C. for 48 hours.

[2] = tested on: numerous microorganisms; assay: in vitro antibacterial potency (general statement); assay type: cell-based
[3] = mouse, in vivo
[4] = solubility in water; conditions: water solutions for injection
[5] = tested on: Pasteurella multocida (4678); assay: protection and survival of infected mice; conditions: intraperitoneal; for survival time: 160 mg/kg ×2
[6] = tested on: Bordetella bronchiseptica (3771); assay: protection and survival of infected mice; conditions: intraperitoneal, 160 mg/kg ×2
[7] = tested on: Staph. aureus 2865; assay: agar dilution MIC, antagonist-free medium (Roche); conditions: Table II
[8] = tested on: E. coli DC2 4353; assay: agar dilution MIC, antagonist-free medium (Roche); conditions: E. coli permeability mutant, Table II
[9] = tested on: Pasteurella multocida; assay: combined therapy with erythromycin in infected mice; conditions: intraperitoneal, vs erythromycin alone

| SMILES | MIC [1] [µg/mL] | potency in vitro [2] | tolerability in uninfected mice [3] | solubility in water (in words) [4] | statistical significance of prolonged survival (in words) [5] | survival time ([5]; 160 mg/kg) | survival time ([5]; listed as L-654.040, 160 mg/kg) | survival time ([6]; 160 mg/kg) | survival time ([6]; listed as L-654.040, 160 mg/kg) | sensitivity of strain [7] | sensitivity of strain [8] | efficacy of combined therapy with erythromycin [9] |
| --- | --- | --- | --- | --- | --- | --- | --- | --- | --- | --- | --- | --- |
| CO[C@@]1(NC(=O)Cc2cccs2)C(=O)N2C(C(=O)O)=C(COC(N)=O)CS[C@@H]21 [CEFOXITIN, Cefoxitin, reference compound] | 1 (≈ 2.34 µM) |  |  |  |  |  |  |  |  |  |  |  |
| C[C@H](CNC(=O)[C@H]1N=C(c2cccc(O)c2O)O[C@@H]1C)C(=O)N[C@@H]1CCCN(O)C1=O [L-654,040] | 128 (≈ 295 µM) | showing potency in vitro against numerous microorganisms | tolerated by uninfected mice | limited solubility | statistically significant at one level in two Pasteurella tests | prolongation of survival time was observed; also recorded: increases survival time | did prolong the survival time | prolongation of survival time was observed | did prolong the survival time | sensitive | sensitive | slightly more effective than erythromycin alone but not to a degree considered to be synergistic |

— patent US4960698A, “Process for producing L-654,040, antibacterial agent” (Merck & Co., Inc., priority 1989, dated 1990)
